In patent US20070189997A1, “Skin-whitening agent containing polyphenol compound” (Nichirei Foods Inc., priority 2004, published 2007):
Where “and” joins values, the source holds several entries; their conditions need not be identical. Equal values may be shown once.

Experiments:
mushroom tyrosinase [1] = test: Inhibition of tyrosinase activity (L-Dopa, absorbance at 475 nm), procedure of Example 3; assay type: biochemical; details: for effects of inhibiting tyrosinase activity (FIG. 1, 3, 4): 25° C., various concentrations in DMSO; for effects for inhibiting tyrosinase activity relative to kojic acid: compared with kojic acid, Table 2; for IC50: procedure of Example 3, read-out: Concentration at which 50% of tyrosinase activity is inhibited
Procedure: 1/15M phosphate buffer (70 μl, pH 6.8), 2 μl each of sample solutions of the C18-adsorbed fraction obtained in Example 1 dissolved in dimethyl sulfoxide (DMSO) at various concentrations, and 70 μl (10 U) of mushroom tyrosinase (Calzyme Laboratories) dissolved in the buffer were mixed, and the mixture was incubated at 25° C. for 10 minutes. Thereafter, 70 μl of 10 mM L-Dopa was added to initiate the reaction, the absorbance at 475 nm was assayed every 20 seconds for 2 minutes, and the inhibition (%) of tyrosinase activity was calculated using the following equation. […] Further, PVPP resin was added to the supernatant to a concentration of 1%, and the resultant was also agitated for 1.5 hours, followed by centrifugation to obtain a supernatant. […] The sample was dissolved in 1/15M phosphate buffer (pH 6.8) instead of DMSO. The polyphenol content was assayed in the same manner as in Example 1.

tyrosinase [2] = test: Tyrosinase activity inhibition, C18-adsorbed fraction and ascorbic acid alone and combined (Example 12, absorbance at 450 nm); assay type: biochemical, mushroom
Procedure: A sample (or a combination of two types of samples) was dissolved in DMSO and diluted with DMSO at adequate concentrations.
A tyrosinase solution (70 μl, 10 U/70 μl, Calzyme Laboratories, Inc.), 70 μl of 1/15M phosphate buffer (Wako Pure Chemical Industries, Ltd.), and 4 μl each of the samples dissolved in DMSO at various concentrations were introduced into separate wells of a 96-well plate. DMSO was added to a control sample instead of a sample solution.
After the pre-incubation was carried out at 25° C. for 10 minutes, 70 μl of 10 mM L-DOPA (Wako Pure Chemical Industries, Ltd.) was added, the mixture was mixed immediately thereafter, and the absorbance at 450 nm was assayed every 20 seconds for 2 minutes. Change (slope) in the absorbance per unit time thus assayed was designated as the initial rate, and the inhibition (%) was determined by the following equation. Inhibition (%)={1−(initial ratesample/initial ratecontrol)}×100
The terms “additive effect” and “synergistic effect” are described. When tyrosinase activity inhibition (%) by the C18-adsorbed fraction alone at a concentration of A μg/ml is X (%) and tyrosinase activity inhibition (%) by ascorbic acid alone at a concentration of B μg/ml is Y (%), the case where the value Z for the tyrosinase activity inhibition (%) assayed upon the reaction of the C18-adsorbed fraction at a concentration of A μg/ml with ascorbic acid at a concentration of B μg/ml is equal to the sum of X+Y is evaluated as “C18-adsorbed fraction additively reacts with ascorbic acid.” The case where the value Z is greater than the sum of X+Y is evaluated as “C18-adsorbed fraction synergistically reacts with ascorbic acid.” When the value Z is smaller than the sum of X+Y, the C18-adsorbed fraction and ascorbic acid attenuate their effects each other.

mushroom tyrosinase [3] = test: Test of anthocyanidin compounds for inhibiting tyrosinase activity (Example 11, IC50); assay type: biochemical; details: for IC50: 25° C., L-Dopa, 475 nm
Procedure: The sample compounds were dissolved in DMSO and diluted with DMSO at adequate concentrations.
1/15M phosphate buffer (70 μl), 70 μl of a solution containing mushroom tyrosinase adjusted at 1 U/μl with a buffer, and 2 μl each of sample solutions dissolved in DMSO at various concentrations were introduced into separate wells of a 96-well plate, and these substances were thoroughly mixed, followed by incubation at 25° C. for 10 minutes.
A solution of 10 mM L-Dopa (70 μl) was added and mixed in immediately thereafter. […] The reaction was carried out at 25° C.
Change (slope) in the absorbance per unit time was designated as the initial rate, and the inhibition of tyrosinase activity (%) was determined by the following equation. Inhibition (%)={1−(initial ratesample/initial ratecontrol)}×100

tyrosinase [4] = details: cited from earlier work
[5] = in vivo; cited from earlier work

IC50 (mushroom tyrosinase [3]) [µM]	Structure (SMILES)	effects of inhibiting tyrosinase activity (mushroom tyrosinase [3])	effects of inhibiting tyrosinase activity (Non-Patent Document 1) (tyrosinase [4])	other results
	O=C1O[C@H]([C@@H](O)CO)C(O)=C1O [Ascorbic acid, ascorbic acid]			Inhibition of tyrosinase activity (%) (mushroom tyrosinase [1]; Ascorbic acid 33.3 μM): 5.49%; Mean of tyrosinase activity inhibition (n = 3) (tyrosinase [2]; ascorbic acid alone 2.4 μg/ml): −1.3%; Mean of tyrosinase activity inhibition (n = 3) (tyrosinase [2]; ascorbic acid alone 4.7 μg/ml): 1.0% and 1.0 ± 3.4%; Mean of tyrosinase activity inhibition (n = 3) (tyrosinase [2]; ascorbic acid alone 9.4 μg/ml): 9.0% and 9.0 ± 2.9%; Mean of tyrosinase activity inhibition (n = 3) (tyrosinase [2]; ascorbic acid alone 47.2 μg/ml): 95.0%; tyrosinase inhibitory activity (tyrosinase [2]; ascorbic acid at a concentration up to 9.4 μg/ml): inhibitory activity was not observed very much; tyrosinase inhibitory activity (tyrosinase [2]; ascorbic acid at a final concentration of 47.2 μg/ml): almost completely inhibited
> 2000	C[C@@H]1O[C@@H](O[C@H]2C(=O)c3c(O)cc(O)cc3O[C@@H]2c2ccc(O)c(O)c2)[C@H](O)[C@H](O)[C@H]1O [Astilbin, dehydroquercitrin]			
33	C[C@@H]1O[C@@H](Oc2cc3c(O)cc(O)cc3[o+]c2-c2ccc(O)c(O)c2)[C@H](O)[C@H](O)[C@H]1O.[Cl-] [C3R, cyanidin-3-rhamnoside]			effects of inhibiting tyrosinase activity (FIG. 1, 3, 4) (mushroom tyrosinase [1]): found to have effects of inhibiting tyrosinase activity; effects for inhibiting tyrosinase activity relative to kojic acid (mushroom tyrosinase [1]): equivalent to those of kojic acid; IC50 (mushroom tyrosinase [1]): 33 µM
11	Oc1cc(O)c2cc(O)c(-c3ccc(O)c(O)c3)[o+]c2c1.[Cl-] [Cyanidin chloride]	found to have effects of inhibiting tyrosinase activity	neither delphinidin, cyanidin, and malvidin have effects of inhibiting tyrosinase activity	
84	OC[C@H]1O[C@@H](Oc2cc3c(O)cc(O)cc3[o+]c2-c2ccc(O)c(O)c2)[C@H](O)[C@@H](O)[C@@H]1O [Cyanidin-3-glucoside, reference compound]			
16.4	Oc1cc(O)c2cc(O)c(-c3cc(O)c(O)c(O)c3)[o+]c2c1 [Delphinidin chloride]	found to have effects of inhibiting tyrosinase activity	neither delphinidin, cyanidin, and malvidin have effects of inhibiting tyrosinase activity	
	O=c1cc(CO)occ1O [Kojic acid]			potential cause of liver cancer in animal tests [5]: found to be a potential cause of liver cancer
5.7	CC1O[C@@H](Oc2cc3c(O)cc(O)cc3[o+]c2-c2ccc(O)cc2)[C@@H](O)C(O)[C@H]1O (some centres unmarked) [P3R, pelargonidin-3-rhamnoside]			effects of inhibiting tyrosinase activity (FIG. 1, 3, 4) (mushroom tyrosinase [1]): found to have effects of inhibiting tyrosinase activity; effects for inhibiting tyrosinase activity relative to kojic acid (mushroom tyrosinase [1]): about 6 times; IC50 (mushroom tyrosinase [1]): 5.7 µM
20	Oc1ccc(-c2[o+]c3cc(O)cc(O)c3cc2O)cc1 [Pelargonidin chloride]	found to have effects of inhibiting tyrosinase activity		

Structure (SMILES)	IC50 (mushroom tyrosinase [3]) [µM]	effects of inhibiting tyrosinase activity (mushroom tyrosinase [3])	effects of inhibiting tyrosinase activity (Non-Patent Document 1) (tyrosinase [4])	other results
COc1cc(-c2[o+]c3cc(O)cc(O)c3cc2O)cc(OC)c1O [Malvidin chloride]	0.4	particularly potent	neither delphinidin, cyanidin, and malvidin have effects of inhibiting tyrosinase activity	
